Reference: patent publication US7709478B2, “Acylated 6,7,8,9-tetrahydro-5H-benzocycloheptenyl amines and their use as pharmaceutical agents” (sanofi-aventis Deutschland GmbH, priority 2001, dated 2010)

Tested on: eNOS promoter
Experiment: Activation of eNOS transcription (eNOS promoter-luciferase reporter gene assay)
Assay type: cell-based, human
Settings: 18 h incubation; for EC50: EC50 of transcription induction ratio vs compound concentration, determined graphically, human endothelial cell line stably transfected with eNOS promoter-luciferase construct; for maximal fold induction / TIR(max): maximum transcription induction ratio (luciferase activity with compound / solvent alone), human endothelial cell line with eNOS promoter-luciferase construct; for maximal fold induction: read-out: TIR(max)
Procedure: Measurement of Activation of eNOS Transcription
Activation of eNOS transcription was measured as described in detail in Li et al. “Activation of protein kinase C alpha and/or epsilon enhances transcription of the human endothelial nitric oxide synthase gene”, Mol. Pharmacol. 1998; 53: 630-637.
Briefly, a 3.5 kB long fragment 5′ of the starting codon of the eNOS gene was cloned, sequenced and cloned in firefly luciferase expression plasmids to monitor activation of the eNOS promoter by reporter gene activity. A human endothelial cell line stable transfected and expressing this promoter-reporter construct was used for compound testing. Cells were incubated for 18 h with compounds.
All compounds were dissolved in sterile DMSO. A final concentration of 0.5% DMSO in complete medium was allowed. Induction of reporter gene expression in these cells was measured using a standard luciferase assay system (Promega, Cat. No E150) according to the manufacturer's instructions. Luciferase induction in cells incubated with compounds were compared to those incubated with solvent alone. The ratio of both activities (transcription induction ratio, TIR) was plotted as a function of compound concentration. Typically, TIR values started at low concentrations at a ratio of 1, indicating no compound effect, and extended up to a maximum TIR value TIR(max) which indicates the increase of the eNOS transcription. EC50 values of transcription induction ratios as a function of compound concentration were determined graphically.

Row | Compound | EC50 [nM] | maximal fold induction | TIR(max)
1 | Nc1ncccc1C(=O)NC1CCCc2ccccc2C1 (single isomer, unassigned) [Compound 24, 2-AMINO-N-(6,7,8,9-TETRAHYDRO-5H-BENZOCYCLOHEPTEN-6-YL)-NICOTINAMIDE] | 30 | 3.1 | –
2 | Cc1ncccc1C(=O)NC1CCCc2ccccc2C1 (single isomer, unassigned) [Compound 26, 2-METHYL-N-(6,7,8,9-TETRAHYDRO-5H-BENZOCYCLOHEPTEN-6-YL)-NICOTINAMIDE] | 1800 | 3.1 | –
3 | Cc1nc(C)c(C(=O)NC2CCCc3ccccc3C2)s1 (single isomer, unassigned) [Compound 28, 2,4-DIMETHYL-THIAZOLE-5-CARBOXYLIC ACID (6,7,8,9-TETRAHYDRO-5H-BENZOCYCLOHEPTEN-6-YL)-AMIDE] | 49 | 3.4 | –
4 | Cc1nc(C)c(C(=O)NC2CCCc3ccccc3C2)s1 (single isomer, unassigned) [Compound 29, 2,4-DIMETHYL-THIAZOLE-5-CARBOXYLIC ACID (6,7,8,9-TETRAHYDRO-5H-BENZOCYCLOHEPTEN-6-YL)-AMIDE] | 9600 | – | 3.4
5 | Cc1c(C(=O)NC2CCCc3ccccc3C2)cnn1-c1ccccc1 (single isomer, unassigned) [Compound 31, 5-METHYL-1-PHENYL-1H-PYRAZOLE-4-CARBOXYLIC ACID (6,7,8,9-TETRAHYDRO-5H-BENZOCYCLOHEPTEN-6-YL)-AMIDE] | 5000 | 2.8 | –
6 | Cc1cnc(C(=O)NC2CCCc3ccccc3C2)cn1 (single isomer, unassigned) [Compound 32, 5-METHYL-PYRAZINE-2-CARBOXYLIC ACID (6,7,8,9-TETRAHYDRO-5H-BENZOCYCLOHEPTEN-6-YL)-AMIDE] | 47 | 3 | –
7 | Cc1cnc(C(=O)NC2CCCc3ccccc3C2)cn1 (single isomer, unassigned) [Compound 33, 5-METHYL-PYRAZINE-2-CARBOXYLIC ACID (6,7,8,9-TETRAHYDRO-5H-BENZOCYCLOHEPTEN-6-YL)-AMIDE] | 3300 | – | 2.6
8 | O=C(NC1CCCc2ccccc2C1)c1cnn(-c2ccccc2)c1C(F)(F)F (single isomer, unassigned) [Compound 34, 1-PHENYL-5-TRIFLUOROMETHYL-1H-PYRAZOLE-4-CARBOXYLIC ACID (6,7,8,9-TETRAHYDRO-5H-BENZOCYCLOHEPTEN-6-YL)-AMIDE] | 60 | 2.8 | –
9 | O=C(NC1CCCc2ccccc2C1)c1cnn(-c2ccccc2)c1C(F)(F)F (single isomer, unassigned) [Compound 35, 1-PHENYL-5-TRIFLUOROMETHYL-1H-PYRAZOLE-4-CARBOXYLIC ACID (6,7,8,9-TETRAHYDRO-5H-BENZOCYCLOHEPTEN-6-YL)-AMIDE] | 3300 | – | 3.5
10 | O=C(NC1CCCc2ccccc2C1)c1ccc(C(F)(F)F)nc1 (single isomer, unassigned) [Compound 37, N-(6,7,8,9-TETRAHYDRO-5H-BENZOCYCLOHEPTEN-6-YL)-6-TRIFLUOROMETHYL-NICOTINAMIDE] | 283 | 2.9 | –
11 | Cc1nc(C(F)(F)F)ccc1C(=O)NC1CCCc2ccccc2C1 (single isomer, unassigned) [Compound 39, 2-METHYL-N-(6,7,8,9-TETRAHYDRO-5H-BENZOCYCLOHEPTEN-6-YL)-6-TRIFLUOROMETHYL-NICOTINAMIDE] | 496 | 2.9 | –
12 | CN(C)c1cccc(C(=O)NC2CCCc3ccccc3C2)c1 (single isomer, unassigned) [Compound 43, 3-DIMETHYLAMINO-N-(6,7,8,9-TETRAHYDRO-5H-BENZOCYCLOHEPTEN-6-YL)-BENZAMIDE] | 80 | 3.2 | –
13 | Nc1nccnc1C(=O)NC1CCCc2ccccc2C1 (single isomer, unassigned) [Compound 45, 3-AMINO-PYRAZINE-2-CARBOXYLIC ACID (6,7,8,9-TETRAHYDRO-5H-BENZOCYCLOHEPTEN-6-YL)-AMIDE] | 60 | 2.9 | –
14 | Cc1ccc(C(=O)NC2CCCc3ccccc3C2)cn1 (single isomer, unassigned) [Compound 54, 6-METHYL-N-(6,7,8,9-TETRAHYDRO-5H-BENZOCYCLOHEPTEN-6-YL)-NICOTINAMIDE] | 42 | 3.2 | –
15 | Cc1cc(C)c(C(=O)NC2CCCc3ccccc3C2)cn1 (single isomer, unassigned) [Compound 110, 4,6-DIMETHYL-N-(6,7,8,9-TETRAHYDRO-5H-BENZOCYCLOHEPTEN-6-YL)-NICOTINAMIDE] | 1000 | 3.1 | –
16 | Cc1ccc(C(=O)NC2CCCc3ccccc3C2)c(C)n1 (single isomer, unassigned) [Compound 112, 2,6-DIMETHYL-N-(6,7,8,9-TETRAHYDRO-5H-BENZOCYCLOHEPTEN-6-YL)-NICOTINAMIDE] | 40 | 3.1 | –

Row | Compound | EC50 [nM] | maximal fold induction | TIR(max)
17 | CNc1nc(C)ccc1C(=O)NC1CCCc2ccccc2C1 (single isomer, unassigned) [Compound 123, 6-METHYL-2-METHYLAMINO-N-(6,7,8,9-TETRAHYDRO-5H-BENZOCYCLOHEPTEN-6-YL)-NICOTINAMIDE] | 260 | 2.9 | –
18 | CNc1nc(C)ccc1C(=O)NC1CCCc2ccccc2C1 (single isomer, unassigned) [Compound 124, 6-METHYL-2-METHYLAMINO-N-(6,7,8,9-TETRAHYDRO-5H-BENZOCYCLOHEPTEN-6-YL)-NICOTINAMIDE] | 6 | – | 2.9
19 | O=C(NC1CCCc2ccccc2C1)c1ccc(F)cc1 (single isomer, unassigned; (+)) [Compound 1b, (+)-4-Fluoro-N-(6,7,8,9-tetrahydro-5H-benzocyclohepten-6-yl)-benzamide] | 6000 | – | 2.9
20 | Cc1cc(C(=O)NC2CCCc3ccccc3C2)c(C)n1Cc1ccncc1 (single isomer, unassigned; (+)) [Compound 47, (+)-2,5-DIMETHYL-1-PYRIDIN-4-YLMETHYL-1H-PYRROLE-3-CARBOXYLIC ACID (6,7,8,9-TETRAHYDRO-5H-BENZOCYCLOHEPTEN-6-YL)-AMIDE] | 20 | 3.4 | –
21 | Cc1cc(C(=O)NC2CCCc3ccccc3C2)c(C)[nH]1 (single isomer, unassigned; (+)) [Compound 49, (+)-2,5-DIMETHYL-1H-PYRROLE-3-CARBOXYLIC ACID (6,7,8,9-TETRAHYDRO-5H-BENZOCYCLOHEPTEN-6-YL)-AMIDE] | 40 | 3 | –
22 | O=C(NC1CCCc2ccccc2C1)c1ccnc(N2CCCC2)c1 (single isomer, unassigned; (+)) [Compound 149, (+)-2-PYRROLIDIN-1-YL-N-(6,7,8,9-TETRAHYDRO-5H-BENZOCYCLOHEPTEN-6-YL)-ISONICOTINAMIDE] | 3400 | 3 | –
23 | O=C(NC1CCCc2ccccc2C1)c1ccc(F)cc1 (single isomer, unassigned; (-)) [Compound 1a, (−)-4-Fluoro-N-(6,7,8,9-tetrahydro-5H-benzocyclohepten-6-yl)-benzamide] | 1 | – | 3.2
24 | Cc1cc(C(=O)NC2CCCc3ccccc3C2)c(C)n1Cc1ccncc1 (single isomer, unassigned; (-)) [Compound 48, (−)-2,5-DIMETHYL-1-PYRIDIN-4-YLMETHYL-1H-PYRROLE-3-CARBOXYLIC ACID (6,7,8,9-TETRAHYDRO-5H-BENZOCYCLOHEPTEN-6-YL)-AMIDE] | 590 | – | 3.4
25 | Cc1cc(C(=O)NC2CCCc3ccccc3C2)c(C)[nH]1 (single isomer, unassigned; (-)) [Compound 50, (−)-2,5-DIMETHYL-1H-PYRROLE-3-CARBOXYLIC ACID (6,7,8,9-TETRAHYDRO-5H-BENZOCYCLOHEPTEN-6-YL)-AMIDE] | 1800 | – | 3
26 | O=C(NC1CCCc2ccccc2C1)c1nc(NCc2ccccc2)ccc1Cl (centres unmarked) [143 B] | 28000 | – | 2.5
27 | Cc1cc(Cl)ccc1C(=O)NC1CCCc2ccccc2C1 (centres unmarked) [Compound 3, 4-CHLORO-2-METHYL-N-(6,7,8,9-TETRAHYDRO-5H-BENZOCYCLOHEPTEN-6-YL)-BENZAMIDE] | < 80 | 2.2 | –
28 | O=C(NC1CCCc2ccccc2C1)c1ccc(F)cc1Cl (centres unmarked) [Compound 4, 2-CHLORO-4-FLUORO-N-(6,7,8,9-TETRAHYDRO-5H-BENZOCYCLOHEPTEN-6-YL)-BENZAMIDE] | < 80 | 2.8 | –
29 | CCOc1ccc(C(=O)NC2CCCc3ccccc3C2)cc1 (centres unmarked) [Compound 5, 4-ETHOXY-N-(6,7,8,9-TETRARYDRO-5H-BENZOCYCLOHEPTEN-6-YL)-BENZAMIDE] | < 80 | – | 3.0
30 | O=C(NC1CCCc2ccccc2C1)c1ccc(F)cc1F (centres unmarked) [Compound 6, 2,4-DIFLUORO-N-(6,7,8,9-TETRAHYDRO-5H-BENZOCYCLOHEPTEN-6-YL)-BENZAMIDE] | < 80 | 3 | –
31 | O=C(NC1CCCc2ccccc2C1)c1ccc(Cl)nc1 (centres unmarked) [Compound 10, 6-CHLORO-N-(6,7,8,9-TETRAHYDRO-5H-BENZOCYCLOHEPTEN-6-YL)-NICOTINAMIDE] | 256 | 3 | –
